Assay results as given in publication PMC5748279, “Novel Antitubercular 6-Dialkylaminopyrimidine Carboxamides from Phenotypic Whole-Cell High Throughput Screening of a SoftFocus Library: Structure–Activity Relationship and Target Identification Studies” (Journal of Medicinal Chemistry, 2017).
In brackets after ≈: the same amount, converted by molar mass. Several values for one entry are separate records, joined by “and”; a condition that tells them apart may be missing. Identical values can stand only once.

How the values were obtained:
[1] = system: Mycobacterium tuberculosis (H37RvMa); assay: microbe, parasite or virus in culture; type: cell-based; settings: for MIC99 7H9/ADC / fold more potent in 7H9/ADC compared to 1: 7H9/ADC medium; for MIC99 GAST/Fe / fold more potent in GAST/Fe compared to 1: GAST/Fe medium; for fold more potent in 7H9/ADC compared to 1 / fold more potent in GAST/Fe compared to 1: versus compound 1; for MIC: Mycobacterium tuberculosis, medium not stated
physchem [2] = type: physicochemical
Protocol: (§1) The kinetic solubility assay was performed using a miniaturised shake flask method. 10 mM stock […]
(§2) DMSO, and to spike (1:50) duplicate aqueous samples of FaSSIF (simulating fasting state biorelevant media, pH 6.5), with a final DMSO concentration of 2%. After shaking for 2 hours at 25 °C, the solutions were filtered and analysed by means of HPLC,DAD (Agilent 1200 Rapid Resolution HPLC with a diode array detector). Best fit calibration curves were constructed using the calibration standards, which were used to determine the aqueous samples’ solubility.13
(§3) 4.2) Microsomal stability
(§4) The metabolic stability assay was performed in duplicate in a 96,well micro titre plate. The test compounds (0.1 µM) were incubated individually in mouse, rat and pooled human liver […]
(§5) the cofactor NADPH (1 mM). Reactions were quenched by adding 300 µL of ice cold acetonitrile containing internal standard (carbamazepine, 0.0236 µg/mL). Test compounds in the supernatant were analysed by means of LC,MS/MS (Agilent Rapid Resolution HPLC, AB SCIEX 4000 QTRAP MS) for the disappearance of parent compound. Metabolite searches were not conducted during the metabolic stability assay.14
(§6) 4.3) Plasma protein binding (PPB) assay
The plasma protein binding assay was performed in a 96,well micro titre plate with pooled human plasma, spiked with test compound (5 µM). An aliquot was immediately removed and quenched using ice cold acetonitrile containing internal standard (carbamazepine, 0.0236 µg/mL), and placed in the freezer. This served as the total concentration sample. After pre,incubation (37 °C for 1 hour) duplicate aliquots of the spiked plasma were transferred to ultra,centrifugation tubes, […]

[3] = Caseum binding using surrogate caseum
in vivo = settings: male, C57/BL6, mouse
[4] = type: in vitro ADME
Protocol: and ultracentrifuged for 4 hours (42000 rpm, 37 °C, Beckman Optima L,80XP). Analyte concentration of all compounds and sample types were determined by means of LC,MS/MS (Agilent Rapid Resolution HPLC, AB SCIEX 4000 QTRAP MS).
4.4) Lipophilicity (LogD7.4)
The lipophilicity assay was performed in triplicate using a shake,flask procedure. 10 mM stock solutions of each test compound were used to spike (100 µM) a 1:1 mixture of phosphate buffer (pH 7.4) and n,octanol. The solutions were shaken vigorously (1500 rpm) on an orbital shaker for 3 hours at room temperature. Thereafter the samples were centrifuged in order to fully separate the two immiscible fluids. The samples were analysed by HPLC,DAD (Agilent 1200 Rapid Resolution HPLC with a diode array detector) and the amount of compound in the buffer and n, octanol were used to determine the partition coefficient, LogD7.4.15
4.5) Parallel Artificial Membrane Permeability Assay (PAMPA):
The PAMPA assay was performed in triplicate in 96,well MultiScreen Filter plates (Millipore, 0.4 µM PCTE Membrane). Membrane filters were pre,coated with 5% hexadecane in hexane and allowed to dry prior to the assay. Membrane integrity marker, Lucifer yellow was added to the apical wells of the pre,coated MultiScreen plate donor/drug solutions containing test compound.
Phosphate buffer (pH7.4) was added to the 96,well acceptor plate. 10 mM test compound was used to spike (1 µM) the donor buffer at physiologically relevant pH's (pH 4, 6.5 and 8), the donor plate slotted into the acceptor plate and incubated (4 hours at room temperature) with gentle shaking (40,50 rpm). Following the incubation, sample from the acceptor wells and theoretical equilibrium wells were transferred to the analysis plate and matrix matched with blank donor buffer. Acetonitrile containing internal standard (carbamazepine, 0.0236 µg/mL) was added to all samples and they were analysed by LC,MS/MS (Agilent Rapid Resolution HPLC, AB SCIEX 4500 MS). The normalised (analyte/internal) peak areas were used to calculate the apparent permeability (Papp). Membrane integrity was assessed by calculating the Papp of Lucifer Yellow […]
chemosensitivity. […]. Thus only viable cells […]
formazan. Formazan crystals are dissolved in DMSO. The test samples were tested in triplicate on […]
experiment. […] Emetine was used […]
as the reference drug in all experiments. The initial concentration of emetine was 100 µg/mL, […]
lowest being 0.001 µg/mL. […] The […]
the cell viability (data not shown).
GraphPad Prism v.4 software. […]
expressing the full length hERG channel. Single cell ionic currents were measured in the […]

[5] = system: PiniB-LUX reporter (Mtb cell wall biosynthesis); type: cell-based; settings: luminescence over 7 days, INH control
[6] = system: PrecA-LUX reporter (genotoxic compounds); type: cell-based; settings: luminescence over 7 days, CIPRO control
[7] = system: Mtb::gfp strain (H37RvMa::pMSP12GFP); type: cell-based; settings: supplementary csv; for MIC99 7H9/ADC (values marked c: GFP strain based assay): 7H9/ADC medium; for MIC99 GAST/Fe (values marked c: GFP strain based assay): GAST/Fe medium
BCG_3193 (Rv3169) [8] = target: T1, BCG_3193 (Rv3169) (Mycobacterium bovis BCG, UniProt A0A1R3Y3B6); assay: biochemical; set-up: species or system Mycobacterium bovis BCG extract; settings: bead competition in BCG extract
T1 sequence (A0A1R3Y3B6 1-374): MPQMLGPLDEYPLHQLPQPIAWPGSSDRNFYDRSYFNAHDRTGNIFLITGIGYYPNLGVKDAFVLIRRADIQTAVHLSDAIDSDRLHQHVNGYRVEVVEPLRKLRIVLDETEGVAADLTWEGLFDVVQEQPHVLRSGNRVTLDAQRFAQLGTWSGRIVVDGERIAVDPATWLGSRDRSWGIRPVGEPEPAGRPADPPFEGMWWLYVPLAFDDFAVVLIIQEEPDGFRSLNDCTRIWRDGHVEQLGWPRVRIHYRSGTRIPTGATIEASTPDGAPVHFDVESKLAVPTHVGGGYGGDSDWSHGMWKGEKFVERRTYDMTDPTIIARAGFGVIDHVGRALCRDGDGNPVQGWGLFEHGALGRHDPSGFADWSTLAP

BCG_3193 (Rv3169) [9] = target: T1, BCG_3193 (Rv3169); assay: biochemical; type: binding
BCG_3827 (Rv3768) = type: binding, Mycobacterium bovis BCG
[10] = system: Mycobacterium tuberculosis (H37RvMa); assay: microbe, parasite or virus in culture; set-up: MIC99 by standard broth microdilution against M. tuberculosis H37Rv; settings: read-out: MIC99 7H9/ADC (æM)
physchem [11] = settings: sheet table;; kinetic solubility, pH 7.4; aqueous buffer pH 7.4; Kinetic solubility at pH 7.4; read-out: Solubility (æM)
Protocol: as §1, §2, §3, §4, §5, §6
The plasma protein binding assay was performed in a 96,well micro titre plate with pooled human plasma, spiked with test compound (5 µM). […]

For “6-((4-Cyanobenzyl)(methyl)amino)-N-phenylpyrimidine-4-carboxamide [Compound 16]”, the “MIC99 7H9/ADC” value [1] was greater than 50 µM, the “MIC99 7H9/ADC” value ([1]; supplementary csv) was >50 æM and the “MIC99 GAST/Fe” value [1] was 20 µM. For the same molecule, the “MIC99 GAST/Fe” value ([1]; supplementary csv) was 20 æM, the solubility kinetic at 2 h (physchem [2]; pH 7.4) was less than 5 µM and the Solubility (physchem [2]; supplementary csv) was <5 æM.

With “6-(Benzyloxy)-N-phenylpyrimidine-4-carboxamide [Compound 4]” the “MIC99 7H9/ADC” value [1] was greater than 160 µM and the “MIC99 7H9/ADC” value ([1]; supplementary csv) was >160 æM.

For CN(Cc1ccc(F)cc1)c1cc(C(=O)Nc2ccccc2)ncn1 [Compound 10, 6-((4-Fluorobenzyl)(methyl)amino)-N-phenylpyrimidine-4-carboxamide], the “fold more potent in 7H9/ADC compared to 1” value [1] was no less than 4 fold and the “fold more potent in GAST/Fe compared to 1” value [1] was no less than 2 fold.

With CN(Cc1ccc(Cl)cc1)c1cc(C(=O)Nc2ccccc2)ncn1 [Compound 11, 6-((4-Chlorobenzyl)(methyl)amino)-N-phenylpyrimidine-4-carboxamide] the “fold more potent in 7H9/ADC compared to 1” value [1] was no less than 4 fold and the “fold more potent in GAST/Fe compared to 1” value [1] was no less than 2 fold.

Work on CN(Cc1ccc(C(F)(F)F)cc1)c1cc(C(=O)Nc2ccccc2)ncn1 [Compound 12, 6-(Methyl(4-(trifluoromethyl)benzyl)amino)-N-phenylpyrimidine-4-carboxamide] yielded a caseum distribution unbound [3] of 0.1%, an AUC(0-inf) at 24 h (in vivo; iv, 5 mg/kg) of 20.4 µM·h and a clearance at 24 h (in vivo; iv, 5 mg/kg) of 11.3 mL/min/kg. It also gave a half-life at 24 h (in vivo; iv, 5 mg/kg) of 4.6 h, an AUC(0-inf) at 24 h (in vivo; po, 20 mg/kg) of 22.2 µM·h and a half-life at 24 h (in vivo; po, 20 mg/kg) of 8.7 h. For the same molecule, the “PAMPA log Papp” value [4] was “–4.9”, the PiniB-LUX reporter response [5] was “a weak, delayed response” and the PrecA-LUX reporter response [6] was “delayed (Day 3 onwards) induction of luminescence”.

With COc1ccc(NC(=O)c2cc(N(C)Cc3cccc(F)c3)ncn2)cc1 [Compound 13, 6-((3-Fluorobenzyl)(methyl)amino)-N-(4-methoxyphenyl)pyrimidine-4-carboxamide] the PiniB-LUX reporter response [5] was “a weak, delayed response” and the PrecA-LUX reporter response [6] was “delayed (Day 3 onwards) induction of luminescence”.

With CN(Cc1ccc(S(C)(=O)=O)cc1)c1cc(C(=O)Nc2ccccc2)ncn1 [Compound 17, 6-(Methyl(4-(methylsulfonyl)benzyl)amino)-N-phenylpyrimidine-4-carboxamide] the “MIC99 7H9/ADC (values marked c: GFP strain based assay)” value [7] was greater than 125c æM and the “MIC99 GAST/Fe (values marked c: GFP strain based assay)” value [7] was greater than 125c æM.

For CN(Cc1cccnc1)c1cc(C(=O)Nc2ccccc2)ncn1 [Compound 19, 6-(Methyl(pyridin-3-ylmethyl)amino)-N-phenylpyrimidine-4-carboxamide], the “MIC99 7H9/ADC (values marked c: GFP strain based assay)” value [7] was 48c æM and the “MIC99 GAST/Fe (values marked c: GFP strain based assay)” value [7] was 37c æM.

Work on CN(Cc1ccc(C(F)(F)F)nc1)c1cc(C(=O)Nc2ccccc2)ncn1 [Compound 20, 6-(Methyl((6-(trifluoromethyl)pyridin-3-yl)methyl)amino)-N-phenylpyrimidine-4-carboxamide] yielded an AUC(0-inf) at 24 h (in vivo; iv, 5 mg/kg) of 19.6 µM·h, a clearance at 24 h (in vivo; iv, 5 mg/kg) of 11.2 mL/min/kg and an AUC(0-inf) at 24 h (in vivo; po, 20 mg/kg) of 33.3 µM·h. For the same molecule, the “PAMPA log Papp” value [4] was “–3.8”.

For CN(Cc1ccc(C(F)(F)F)cc1)c1cc(C(=O)NC2CCCCC2)ncn1 [Compound 34, N-Cyclohexyl-6-(methyl(4-(trifluoromethyl)benzyl)amino)pyrimidine-4-carboxamide], the “MIC99 7H9/ADC (values marked c: GFP strain based assay)” value [7] was greater than 125c æM and the “MIC99 GAST/Fe (values marked c: GFP strain based assay)” value [7] was 12c æM.

CN1CCN(c2ccc(NC(=O)c3cc(N(C)Cc4ccc(C(F)(F)F)cc4)ncn3)cc2)CC1 [Compound 40, 6-(Methyl(4-(trifluoromethyl)benzyl)amino)-N-(4-(4-methylpiperazin-1-yl)phenyl)pyrimidine-4-carboxamide] gave a caseum distribution unbound [3] of 0.1%, an AUC(0-inf) at 24 h (in vivo; iv, 5 mg/kg) of 9 µM·h and a half-life at 24 h (in vivo; iv, 5 mg/kg) of 10.3 h. The AUC(0-inf) at 24 h (in vivo; po, 20 mg/kg) was 9.4 µM·h, the half-life at 24 h (in vivo; po, 20 mg/kg) was 15.8 h and the “PAMPA log Papp” value [4] was “–4.5”. The IC50 (BCG_3193 (Rv3169) [8]; IC50, Experiment ID=X028553) was 1.7 µM, the IC50 (BCG_3193 (Rv3169) [8]; IC50, Experiment ID=X028554) was 1.5 µM and the Hill (BCG_3193 (Rv3169) [9]) was 1.62. For the same molecule, the “binding of BCG_3193 to the compound beads in presence of free compound” value (BCG_3193 (Rv3169) [9]) was “reduced binding”, the IC50 (BCG_3193 (Rv3169) [9]; IC50) was 1.1 µM and the Kd (BCG_3193 (Rv3169) [9]; apparent dissociation constant Kd^app for BCG_3193) was 0.61 µM and 0.69 µM. The IC50 (BCG_3193 (Rv3169) [9]; pIC50) was 1.1 µM, the IC50 (BCG_3827 (Rv3768)) was 10 µM and the “binding of BCG_3827 to the compound beads in presence of free compound” value (BCG_3827 (Rv3768)) was “reduced binding”. For the same molecule, the Kd (BCG_3827 (Rv3768); read-out: apparent dissociation constant Kd^app for BCG_3827) was 2.1 µM and 3.8 µM.

With CN1CCN(c2cccc(NC(=O)c3cc(N(C)Cc4ccc(F)cc4)ncn3)c2)CC1 [Compound 42, 6-((4-Fluorobenzyl)(methyl)amino)-N-(3-(4-methylpiperazin-1-yl)phenyl)pyrimidine-4-carboxamide] the “MIC values dropping by fold” value ([1]; 3-position versus 4-position N-methylpiperazine) was 10- to 30 fold.

In the case of CN(Cc1ccc(F)cc1)c1cc(C(=O)Nc2ccc(N3CCOCC3)cc2)ncn1 [Compound 45, 6-((4-Fluorobenzyl)(methyl)amino)-N-(4-morpholinophenyl)pyrimidine-4-carboxamide], the MIC [1] is reported as less than 5 µM.

For CN(Cc1ccc(C(F)(F)F)nc1)c1cc(C(=O)Nc2ccc(N3CCOCC3)cn2)ncn1 [Compound 46, 6-(Methyl((6-(trifluoromethyl)pyridin-3-yl)methyl)amino)-N-(5-morpholinopyridin-2-yl)pyrimidine-4-carboxamide], the MIC [1] was 2 to 3 µM (≈ 0.947 to 1.42 µg/mL).

CN(Cc1ccc(F)cc1)c1cc(C(=O)Nc2nncs2)ncn1 [Compound 51, 6-((4-Fluorobenzyl)(methyl)amino)-N-(1,3,4-thiadiazol-2-yl)pyrimidine-4-carboxamide] gave a caseum distribution unbound [3] of 0.5%, an AUC(0-inf) at 24 h (in vivo; iv, 5 mg/kg) of 22.1 µM·h and a clearance at 24 h (in vivo; iv, 5 mg/kg) of 11.1 mL/min/kg. For the same molecule, the half-life at 24 h (in vivo; iv, 5 mg/kg) was 5.1 h, the AUC(0-inf) at 24 h (in vivo; po, 20 mg/kg) was 17 µM·h and the half-life at 24 h (in vivo; po, 20 mg/kg) was 4.4 h. The solubility kinetic at 2 h (physchem [2]; pH 7.4, pH 7.4) was greater than 100 µM.

With O=C(Nc1ccccc1)c1cc(OCC2CCCCC2)ncn1 [compound 4] the MIC99 [10] was greater than 160 µM.

With [C-]#[N+]c1ccc(CN(C)c2cc(C(=O)Nc3ccccc3)ncn2)cc1 [compound 16] the solubility at 2 h (physchem [11]) was less than 5 µM and the MIC99 [10] was greater than 50 µM.
